Among the data in PMC9995496, “A screen for MeCP2-TBL1 interaction inhibitors using a luminescence-based assay” (Scientific Reports, 2023) are Inhibition percent values, retold here.

Structures are written as SMILES.

The first experiment addresses T1, MeCP2-TBL1 interaction (MeCP2-SmBiT / TBL1-LgBiT) (Mus musculus, UniProt Q9QXE7).
T1 construct: expressed in transfected cells; crude lysate used as a cell-free assay
T1 sequence (Q9QXE7 166-527): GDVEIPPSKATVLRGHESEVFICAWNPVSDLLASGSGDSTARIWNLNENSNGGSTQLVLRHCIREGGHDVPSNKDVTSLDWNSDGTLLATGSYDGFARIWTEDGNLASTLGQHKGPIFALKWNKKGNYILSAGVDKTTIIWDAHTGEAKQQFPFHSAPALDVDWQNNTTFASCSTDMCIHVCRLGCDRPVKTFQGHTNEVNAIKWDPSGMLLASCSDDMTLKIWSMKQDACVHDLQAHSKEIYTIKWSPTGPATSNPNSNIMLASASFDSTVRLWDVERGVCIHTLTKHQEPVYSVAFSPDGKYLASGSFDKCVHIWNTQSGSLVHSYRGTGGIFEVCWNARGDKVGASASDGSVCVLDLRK
Nature of the experiment: MeCP2-TBL1 NanoLuc luciferase complementation assay (cell-free, extracts of transfected HEK293 cells).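 Note: each compound tested at 20 µM final concentration.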 The format is binding, human. The note with it: primary screen of Asinex library, single well per compound. Summed up: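 Cell-free split NanoLuc: lysate of HEK293 cells co-expressing the MeCP2 C-terminal half-SmBiT and TBL1 WD domain-LgBiT, mixed 1:1 with furimazine. After 30 min at room temperature, luminescence was plate-median normalized.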
Take `Cc1nn(C)cc1CCC(=O)N1CCC[C@@H]2NC(=O)c3ccccc3OCCCCC[C@@H]21` [BDH_33734258]: the Inhibition percent is given as -1.51. Still for that read-out and setting: the same measure for `Cn1nccc1CN[C@@H]1C[C@@H](Oc2ccccc2)[C@H](O)[C@H]1N1CCN(c2ccccc2)CC1` [BDH_33787192]: -0.36; for `CN(C)c1ccccc1C(=O)N(C)[C@H]1CC[C@@]2(CCO)C[C@H](c3ccccc3)C[C@](C)(O2)[C@@H]1O` [BDH_33903744]: 1.99. For `C[C@@]12C[C@H](c3ccccc3)N(C(=O)CCCn3cccn3)[C@@H]1CCC[C@@H](O)[C@@H]2O` [BDH_33903800], the Inhibition percent amounted to 0.83. Turning to `O=C(NCCc1ccccc1)[C@@H]1[C@H](O)[C@@H](c2ccc(F)cc2)CN1C(=O)Cc1c[nH]c2ccccc12` [BDH_34023215], the Inhibition percent is recorded as 2.61. `COCCC(=O)N[C@@]1(C)C[C@@H](c2ccc(F)cc2)O[C@@H](c2ccc(N3CCCC3=O)cc2)C1` [BDH_34036118]: the Inhibition percent stood at 3.23. Still for that read-out and setting: then `COCCC(=O)N[C@]1(C)C[C@@H](c2ccc(Cl)cc2)O[C@@H](c2cc(Br)ccc2O)C1` [BDH_34036884], with 5.22.

Take `CN(C)CCOc1ccc(C(=O)N(C)CC2(O)CCCN(c3ccnc4ccncc34)C2)cc1` (centres unmarked) [BDH_34040371]: the Inhibition percent is recorded as -4.15.

Staying with this experiment, now noted: primary screen of the Asinex library, sheet "Sargen output Asinex library", one well per compound.
For the compound `Cc1ncc(C(=O)N2CCC[C@@H]3[C@H]2C/C=C/Cc2ccccc2OCC(=O)N3C)c(C)n1` [BDH_33728424], the Inhibition percent is reported as -2.62%. On the same count and under the same terms, then `CC(=O)N1CCC2(C/C=C/C[C@H]3CN(C(=O)Cc4cccc(F)c4)CC[C@H]3NC(=O)CNC2=O)CC1` [BDH_33732909], with -2.58%; and `O=C1COc2ccccc2CCCC[C@@H]2CN(C(=O)CCCn3cccn3)CC[C@H]2N1` [BDH_33762630], with 0.76%. The same measure, in the same setting: then `CC(C)C[C@H](NC(=O)OCc1ccccc1)C(=O)N1CCC2(CC1)CO[C@@H]([C@@]1(C)CC[C@H](O)C(C)(C)O1)C2` [BDH_33767587], with -2.43%. Same read-out and setting: then `CC(C)(C)OC(=O)NCCC(=O)N(Cc1ccccc1)C[C@@H]1C[C@@H](n2ccc(=O)[nH]c2=O)[C@@H](O)[C@@H]1O` [BDH_33952010], with -1.46%.

Consider `CC(C)=CCC[C@]1(C)Oc2cc(OCC(=O)O)ccc2[C@H]2OCC3(CCN(C(=O)OC(C)(C)C)CC3)C[C@@H]21` [BDH_33958802], for which the Inhibition percent turned out to be 4.22%. On the same count and under the same terms, the same measure for `CC(C)(C)OC(=O)N(Cc1ccccc1)C[C@@H]1C[C@H](O)[C@H](O)[C@H]1n1cnc2c(N)ncnc21` [BDH_34018090]: -1.62%.

Staying with this experiment, now noted: primary screen of the Asinex library, sheet "Sargen output Asinex library", one well per compound, Batch Ref. 1.
Consider `Cc1nc(C(=O)N2CCCC3(C/C=C/COc4ccccc4C(=O)NCCNC3=O)C2)co1` (centres unmarked) [BDH_33731677], for which the Inhibition percent is on record as -0.08%. Turning to `Cc1cnn(CC(=O)N2CCC3(C/C=C/CCOc4ccccc4C(=O)NCCCNC3=O)CC2)c1` [BDH_33775476], the Inhibition percent was determined as 1.29%. On the same count and under the same terms, the same measure for `C[C@@]12C[C@H](c3ccccc3)N(C(=O)CCc3c[nH]c4ccccc34)[C@@H]1CCC[C@@H](O)[C@H]2O` [BDH_33903568]: 3.00%; for `CC(C)(C)OC(=O)N1[C@@H](CNC(=O)CCc2c[nH]c3ccccc23)C[C@@]2(C)[C@@H](O)CCCC[C@@H]12` [BDH_33903570]: 3.52%. Take `CC(C)=CCC[C@]1(C)Oc2c(OCCOCCO)cccc2[C@H]2O[C@H]3CCN(C(=O)OC(C)(C)C)C[C@@H]3C[C@@H]21` [BDH_33957239]: the Inhibition percent is listed as 4.83%.

As to `CC(C)=CCC[C@]1(C)Oc2cc(OCC(N)=O)ccc2[C@H]2OC[C@@]3(CCCN(C(=O)OC(C)(C)C)C3)C[C@@H]21` [BDH_33958782], the Inhibition percent was determined as 7.79%. The same measure, in the same setting: then `CCCCC[C@]1(O)CCN(S(=O)(=O)c2ccccc2)C[C@@H]1Oc1cccc(F)c1` [BDH_34032183], with 9.13%.

On to `CC(C)C[C@H]1CN(C(=O)CCn2c(=O)oc3cc(Cl)ccc32)CC[C@H]1Nc1cccc(F)c1` [BDH_34035644], for which the Inhibition percent is listed as 1.76%.
